From ChEMBL document CHEMBL6153025, “Multidrug-resistant bacteria quorum-sensing inhibitors: A particular focus on Pseudomonasaeruginosa” (Eur J Med Chem, 2025)
Each block holds one compound with its values, some of them ahead of it.

What was measured:
Pseudomonas aeruginosa [1] = assay: Antibiofilm activity against Pseudomonas aeruginosa PAO1 assessed as inhibition of biofilm formation at 32 ug/ml incubated for 8 hrs by crystal violet staining based assay relative to control; format: functional; design: scale not given: the % may be the effect or the level left; conditions: dose 32 µg/ml
Pseudomonas aeruginosa [2] = assay: Antibacterial activity against Pseudomonas aeruginosa ATCC 15442 assessed as reduction in bacterial cell growth incubated for 24 hrs by two fold serial microdilution method; format: functional
Pseudomonas aeruginosa [3] = assay: Anti-virulence effect in Pseudomonas aeruginosa PAO1 assessed as inhibition of rhamnolipid production at 10 uM relative to control; format: functional; design: scale not given: the % may be the effect or the level left
Pseudomonas aeruginosa [4] = assay: Anti-virulence activity against Pseudomonas aeruginosa PAO1-L assessed as reduction in pyocyanin production at 10 uM incubated for 24 hrs by absorbance based analysis relative to control; format: functional; design: scale not given: the % may be the effect or the level left
[5] = Inhibition of quorum sensing system in Pseudomonas aeruginosa PAO1 expressing lasB-gfp
Bacillus subtilis = assay: Antibacterial activity against Bacillus subtilis; format: functional
Bacillus pumilus = assay: Antibacterial activity against Bacillus pumilus; format: functional
Escherichia coli = assay: Antibacterial activity against Escherichia coli; format: functional
Pseudomonas aeruginosa [6] = assay: Antibacterial activity against Pseudomonas aeruginosa; format: functional
Staphylococcus aureus = assay: Antibacterial activity against Methicillin-sensitive Staphylococcus aureus; format: functional

SMILES: COc1cccc(C[S+]([O-])c2nnn(-c3ccccc3)n2)c1 (stereo unspecified)
- Activity (Pseudomonas aeruginosa [1]): 1.64%

- MIC (Pseudomonas aeruginosa [2]): > 2 µM
SMILES: Clc1ccc(CNCCCCCCCCNc2ccnc3cc(Cl)ccc23)cc1

SMILES: O=C(CCCCCOc1ccc(C(F)(F)F)cc1)NNC(=O)Cn1c(=O)oc2ccccc21
- Activity (Pseudomonas aeruginosa [3]): 2.53%

- MIC (Pseudomonas aeruginosa [2]): > 2 µM
SMILES: Clc1cccc(CNCCCCCCCCNc2ccnc3cc(Cl)ccc23)c1

SMILES: CCCCSSc1nc2cccc(Cl)c2c(=O)n1-c1ccccc1
- Activity (Pseudomonas aeruginosa [4]): 94%

SMILES: CCCCSSc1nc2ccccc2c(=O)[nH]1
- Activity (Pseudomonas aeruginosa [4]): 94%

SMILES: [O-][S+](Cc1ccccc1Cl)c1nnc(-c2ccccc2)o1 (stereo unspecified)
- Activity (Pseudomonas aeruginosa [1]): 40.6%

SMILES: C=CCSSc1nc2ccc(Cl)cc2c(=O)n1-c1ccccc1
- Activity (Pseudomonas aeruginosa [4]): 94%

SMILES: CCCCCCCCSSc1nc2ccccc2c(=O)n1C1CC1
- Activity (Pseudomonas aeruginosa [4]): 94%

- MIC (Pseudomonas aeruginosa [2]): > 2 µM
SMILES: CC(C)NCCCCCCCCNc1ccnc2cc(Cl)ccc12

SMILES: [O-][S+](Cc1ccc2c(O)cccc2c1)c1nnn(-c2ccccc2)n1 (stereo unspecified)
- Activity (Pseudomonas aeruginosa [1]): 1.64%

SMILES: CCCCCCC1=NC(Cn2cnc3cc(Cl)ccc3c2=O)CS1 (stereo unspecified)
- Activity (Pseudomonas aeruginosa [4]): 46%

SMILES: C=CCSSc1nc2ccccc2s1
- Activity (Pseudomonas aeruginosa [4]): 46%

SMILES: CCCCCCSSc1nc2ccccc2c(=O)n1C1CC1
- Activity (Pseudomonas aeruginosa [4]): 94%

- IC50 [5]: 3200 nM
SMILES: N#CCc1ccc(NCC(O)Cn2cnc3ccc(Cl)cc3c2=O)cc1 (stereo unspecified)

SMILES: O=C(CCCCCOc1ccc(F)cc1)NNC(=O)Cn1c(=O)oc2ccccc21
- Activity (Pseudomonas aeruginosa [3]): 2.53%

SMILES: [O-][S+](Cc1ccc(Br)cc1)c1nnc(-c2ccccc2)o1 (stereo unspecified)
- Activity (Pseudomonas aeruginosa [1]): 21.94%

SMILES: [O-][S+](Cc1ccc(C(F)(F)F)cc1)c1nnn(-c2ccccc2)n1 (stereo unspecified)
- Activity (Pseudomonas aeruginosa [1]): 1.64%

SMILES: [O-][S+](Cc1cccc(Cl)c1)c1nnn(-c2ccccc2)n1 (stereo unspecified)
- Activity (Pseudomonas aeruginosa [1]): 1.64%

SMILES: C=CCSSc1nc2ccccc2c(=O)n1-c1ccccc1
- Activity (Pseudomonas aeruginosa [4]): 94%

SMILES: [O-][S+](Cc1ccc(Br)cc1)c1nnn(-c2ccccc2)n1 (stereo unspecified)
- Activity (Pseudomonas aeruginosa [1]): 1.64%

SMILES: [O-][S+](Cc1cccc(Cl)c1)c1nnc(-c2ccccc2)o1 (stereo unspecified)
- Activity (Pseudomonas aeruginosa [1]): 40.6%

- MIC (Pseudomonas aeruginosa [2]): > 2 µM
SMILES: Fc1ccc(CNCCCCCCCCNc2ccnc3cc(Cl)ccc23)cc1

SMILES: CCCCCCCCC(=O)NNC(=O)Cn1c(=O)oc2ccccc21
- Activity (Pseudomonas aeruginosa [3]): 6.34%

SMILES: [O-][S+](Cc1ccc(F)cc1)c1nnn(-c2ccccc2)n1 (stereo unspecified)
- Activity (Pseudomonas aeruginosa [1]): 1.64%

- IC50 [5]: 600 nM
SMILES: O=c1c2cc(C(F)(F)F)ccc2ncn1CC(O)COc1ccccc1 (stereo unspecified)

SMILES: O=C(CCCCCOc1cccc(F)c1)NN1C(=O)CN(c2ccccc2O)C1=O
- MIC (Bacillus subtilis): > 512 µg/mL
- MIC (Bacillus pumilus): > 512 µg/mL
- MIC (Escherichia coli): > 512 µg/mL
- Activity (Pseudomonas aeruginosa [3]): 2.76%
- MIC (Pseudomonas aeruginosa [6]): > 512 µg/mL
- MIC (Staphylococcus aureus): > 512 µg/mL

SMILES: O=[N+]([O-])c1ccc(C[S+]([O-])c2nnn(-c3ccccc3)n2)cc1 (stereo unspecified)
- Activity (Pseudomonas aeruginosa [1]): 1.64%

SMILES: [O-][S+](Cc1ccc(Cl)cc1)c1nnn(-c2ccccc2)n1 (stereo unspecified)
- Activity (Pseudomonas aeruginosa [1]): 1.64%

- MIC (Pseudomonas aeruginosa [2]): > 2 µM
SMILES: NCCCCCCCCCCCCNc1ccnc2cc(Cl)ccc12

SMILES: Cc1ccc(C[S+]([O-])c2nnn(-c3ccccc3)n2)cc1 (stereo unspecified)
- Activity (Pseudomonas aeruginosa [1]): 1.64%

SMILES: [O-][S+](Cc1ccc(F)cc1)c1nnc(-c2ccccc2)o1 (stereo unspecified)
- Activity (Pseudomonas aeruginosa [1]): 23.17%

SMILES: CCCCCCCCSSc1nc2cccc(Cl)c2c(=O)n1-c1ccccc1
- Activity (Pseudomonas aeruginosa [4]): 94%

- MIC (Pseudomonas aeruginosa [2]): > 2 µM
SMILES: Clc1ccc2c(NCCCCCCCCNCc3ccccc3Cl)ccnc2c1

SMILES: [O-][S+](Cc1ccc(C(F)(F)F)cc1)c1nnc(-c2ccccc2)o1 (stereo unspecified)
- Activity (Pseudomonas aeruginosa [1]): 21.94%

- IC50 [5]: 600 nM
SMILES: O=c1c2c(Cl)cccc2ncn1CC(O)COc1ccccc1 (stereo unspecified)

SMILES: Clc1ccc(SSc2nc3ccccc3s2)cc1
- Activity (Pseudomonas aeruginosa [1]): 40.6%

- IC50 [5]: 3200 nM
SMILES: N#CCc1ccc(OCC(O)Cn2cnc3ccc(Cl)cc3c2=O)cc1 (stereo unspecified)

SMILES: Cc1ccc(OCCCCCC(=O)NNC(=O)Cn2c(=O)oc3ccccc32)cc1
- Activity (Pseudomonas aeruginosa [3]): 2.53%

SMILES: Cc1ccc(C[S+]([O-])c2nnc(-c3ccccc3)o2)cc1 (stereo unspecified)
- Activity (Pseudomonas aeruginosa [1]): 40.6%

- MIC (Pseudomonas aeruginosa [2]): > 2 µM
SMILES: Clc1ccc2c(NCCCCCCNCCc3ccccc3)ccnc2c1

SMILES: CCCCSSc1nc2ccc(Cl)cc2c(=O)n1-c1ccccc1
- Activity (Pseudomonas aeruginosa [4]): 94%

SMILES: O=C(CCCCCOc1cccc(C(F)(F)F)c1)NNC(=O)Cn1c(=O)oc2ccccc21
- Activity (Pseudomonas aeruginosa [3]): 2.53%

SMILES: O=[N+]([O-])c1ccc(C[S+]([O-])c2nnc(-c3ccccc3)o2)cc1 (stereo unspecified)
- Activity (Pseudomonas aeruginosa [1]): 40.6%

- IC50 [5]: 800 nM
SMILES: O=c1c2cc(Br)ccc2ncn1CC(O)COc1ccccc1 (stereo unspecified)

- MIC (Pseudomonas aeruginosa [2]): > 2 µM
SMILES: Fc1cccc(CNCCCCCCCCNc2ccnc3cc(Cl)ccc23)c1

- MIC (Pseudomonas aeruginosa [2]): > 2 µM
SMILES: CN(C)CCCCCCCCNc1ccnc2cc(Cl)ccc12

- MIC (Pseudomonas aeruginosa [2]): > 2 µM
SMILES: Clc1ccc2c(NCCCCCCCCNCCc3ccccc3)ccnc2c1

SMILES: [O-][S+](Cc1ccccc1Cl)c1nnn(-c2ccccc2)n1 (stereo unspecified)
- Activity (Pseudomonas aeruginosa [1]): 1.64%

SMILES: CCCCCCSSc1nc2ccc(Cl)cc2c(=O)n1-c1ccccc1
- Activity (Pseudomonas aeruginosa [4]): 94%

- MIC (Pseudomonas aeruginosa [2]): > 2 µM
SMILES: Clc1ccc2c(NCCCCCCCCCCCCNCc3ccccc3)ccnc2c1

- MIC (Pseudomonas aeruginosa [2]): > 2 µM
SMILES: NCCCCCCCCCCCCNc1ccnc2cc(C(F)(F)F)ccc12

SMILES: [O-][S+](Cc1ccccc1)c1nnc(-c2ccccc2)o1 (stereo unspecified)
- Activity (Pseudomonas aeruginosa [1]): 40.6%

SMILES: CCCCCCCCCc1nc2cc(Cl)ccc2c(=O)n1N
- Activity (Pseudomonas aeruginosa [4]): 46%

- IC50 [5]: 600 nM
SMILES: O=c1c2ccc(Cl)cc2ncn1CC(O)COc1ccccc1 (stereo unspecified)

SMILES: [O-][S+](Cc1ccc(Cl)cc1)c1nc2ccccc2s1 (stereo unspecified)
- Activity (Pseudomonas aeruginosa [1]): 40.6%

SMILES: [O-][S+](Cc1ccc2c(O)cccc2c1)c1nnc(-c2ccccc2)o1 (stereo unspecified)
- Activity (Pseudomonas aeruginosa [1]): 40.88%

SMILES: CCCCCCCCSSc1nc2ccccc2c(=O)n1-c1ccccc1
- Activity (Pseudomonas aeruginosa [4]): 94%

SMILES: CCCCCCCCCCCC(=O)NN1C(=O)CN(c2ccccc2O)C1=O
- MIC (Bacillus subtilis): > 512 µg/mL
- MIC (Bacillus pumilus): > 512 µg/mL
- MIC (Escherichia coli): > 512 µg/mL
- MIC (Pseudomonas aeruginosa [6]): > 512 µg/mL
- MIC (Staphylococcus aureus): > 512 µg/mL

SMILES: CCCCCCSSc1nc2ccccc2c(=O)n1-c1ccccc1
- Activity (Pseudomonas aeruginosa [4]): 94%

- IC50 [5]: 600 nM
SMILES: O=c1c2cc(Cl)cc(Cl)c2ncn1CC(O)COc1ccccc1 (stereo unspecified)

SMILES: COc1cccc(C[S+]([O-])c2nnc(-c3ccccc3)o2)c1 (stereo unspecified)
- Activity (Pseudomonas aeruginosa [1]): 21.94%

SMILES: CCCCCCSSc1nc2cccc(Cl)c2c(=O)n1-c1ccccc1
- Activity (Pseudomonas aeruginosa [4]): 94%

SMILES: CCCCCCSSc1nc2ccccc2c(=O)[nH]1
- Activity (Pseudomonas aeruginosa [4]): 94%

SMILES: CCCCCCCCSSc1nc2ccc(Cl)cc2c(=O)n1-c1ccccc1
- Activity (Pseudomonas aeruginosa [4]): 94%

- MIC (Pseudomonas aeruginosa [2]): > 2 µM
SMILES: Clc1ccc2c(NCCCCCCCCNCc3ccccc3)ccnc2c1

- IC50 [5]: 600 nM
SMILES: O=c1c2cccc(Cl)c2ncn1CC(O)COc1ccccc1 (stereo unspecified)

SMILES: CCCCSSc1nc2ccccc2c(=O)n1C1CC1
- Activity (Pseudomonas aeruginosa [4]): 94%

- IC50 [5]: 600 nM
SMILES: O=c1c2cc(Cl)c(Cl)cc2ncn1CC(O)COc1ccccc1 (stereo unspecified)

SMILES: [O-][S+](Cc1ccccc1)c1nnn(-c2ccccc2)n1 (stereo unspecified)
- Activity (Pseudomonas aeruginosa [1]): 1.64%

- IC50 [5]: 600 nM
SMILES: O=c1c2cc([N+](=O)[O-])ccc2ncn1CC(O)COc1ccccc1 (stereo unspecified)

SMILES: COc1ccc(C[S+]([O-])c2nnc(-c3ccccc3)o2)cc1 (stereo unspecified)
- Activity (Pseudomonas aeruginosa [1]): 21.94%

- MIC (Pseudomonas aeruginosa [2]): > 2 µM
SMILES: Clc1ccc2c(NCCCCCCNCc3ccccc3)ccnc2c1

SMILES: CCCCSSc1nc2ccccc2c(=O)n1-c1ccccc1
- Activity (Pseudomonas aeruginosa [4]): 94%

SMILES: O=C(CCCCCOc1ccc(Cl)cc1)NN1C(=O)CN(c2ccccc2O)C1=O
- MIC (Bacillus subtilis): > 512 µg/mL
- MIC (Bacillus pumilus): > 512 µg/mL
- MIC (Escherichia coli): > 512 µg/mL
- Activity (Pseudomonas aeruginosa [3]): 2.76%
- MIC (Pseudomonas aeruginosa [6]): > 512 µg/mL
- MIC (Staphylococcus aureus): > 512 µg/mL

- MIC (Pseudomonas aeruginosa [2]): > 2 µM
SMILES: [N-]=[N+]=Nc1ccc(CNCCCCCCCCNc2ccnc3cc(Cl)ccc23)cc1

SMILES: COc1cc(C[S+]([O-])c2nnc(-c3ccccc3)o2)cc(OC)c1 (stereo unspecified)
- Activity (Pseudomonas aeruginosa [1]): 21.94%
